The subject of this assay is Mouse Peritonitis Induced by Ragweed Pollen. The experiment in a line: Mouse peritonitis induced by ragweed pollen. The following applies: 400 mg/kg intravenously, totally 5 times; 48 hours after induction. It is filed as in vivo, BLAB/c mouse. On the procedure: Ragweed pollen extract 1:100 (TORII PHARMACEUTICAL) was diluted by 10-fold with physiological saline, and the resulting solution was used as an antigen for sensitization. This antigen solution was subcutaneously administered to each BLAB/c mouse (female, 6 weeks old, JAPAN CHARLES RIVER) in an amount of 100 µl each on DAY-0 and DAY-1, and 200 µl each on DAY-6, DAY-8 and DAY-14 to obtain sensitized mice, DAY-0 being the day of the initial sensitization. On DAY-20, 200 µl of the antigen solution was intraperitoneally administered to induce peritonitis. After 48 hours from the induction, each mouse was sacrificed by bleeding to death, and 3 ml of heparin-containing PBS(-) was intraperitoneally injected. Celiotomy was performed and washing solution of the abdominal cavity was recovered. The leukocytes contained in the recovered washing solution were subjected to site spin and a smear specimen was prepared. After staining the specimen by May-Giemsa staining method, the leukocytes were grouped and counted under microscope to determine the number of eosinophils. Compound No. 140 used as the test compound was dissolved in physiological saline and the solution was intravenously administered totally 5 times, i.e., at 16 hours before induction, at the time of induction, at 8 hours, 24 hours and 32 hours after induction, at a dose of 400 mg/kg per each time. […]

For the molecule `CC(C)(C)CC(=O)N[C@@H](CSSC[C@H](NC(=O)CC(C)(C)C)C(=O)O)C(=O)O` [Example 140, 3-((2(R)-carboxy-2(R)-(3,3-dimethylbutanoylamino)ethyl)disulfanyl)-2(R)-(3,3-dimethylbutanoylamino)propionic acid], the “inhibition rate of accumulation of leukocytes, especially eosinophils, to abdominal cavity” value is recorded as 31.1%.

Source of the values: patent publication EP1209147A1, “CARBOXYLIC ACID DERIVATIVES AND ADHESION MOLECULE INHIBITORS CONTAINING THE SAME AS THE ACTIVE INGREDIENT” (TORAY INDUSTRIES, INC., priority 1999, dated 2001).
